Measured values: US20260355239A1, “COMBINATION OF A T CELL THERAPY AND CONTINUOUS OR INTERMITTENT DGK INHIBITOR DOSING” (Juno Therapeutics, Inc., priority 2022, published 2026)
pEC50: −log10 of the molar value.

Key:
[1] = test system: OT-1 CD8+ T cells with MC38 tumor cells; experiment: Murine Cytotoxic T Lymphocyte Assay (IFN-γ); type: cell-based, mouse; settings: OT-1 CTL with SIINFEKL-pulsed MC38 cells, 24 h; read-out: msCTL INFg IC50
Description: 5. Murine Cytotoxic T Lymphocyte Assay
An antigen-specific cytolytic T-cell (CTL) assay was developed to evaluate functionally the ability of DGKα and DGKζ inhibitors to enhance effector T cell mediated tumor cell killing activity. CD8^+ T-cells isolated from the OT-1 transgenic mouse recognize antigen presenting cells, MC38, that present the ovalbumin derived peptide […]. Recognition of the cognate antigen initiates the cytolytic activity of the OT-1 antigen-specific CD8+ T cells.
Functional CTL cells were generated as follows: OT-1 splenocytes from 8-12 week old mice were isolated and expanded in the presence of the […] peptide at 1 μg/mL and mIL2 at 10 U/mL. After three days, fresh media with […] was added. On day 5 of the expansion, the CD8+ T cells were isolated and ready for use. Activated CTL cells may be stored frozen for 6 months. Separately, one million MC38 tumor cells were pulsed with 1 μg/mL of […]-OVA peptide for 3 hours at 37 °C. The cells were washed (3×) with fresh media to remove excess peptide. Finally, CTL cells that were pretreated with DGK inhibitors for 1 hour in a 96-well U bottom plate were combined with the antigen loaded MC38 tumor cells at a 1:10 ratio. The cells were then spun at 700 rpm for 5 min and placed in an incubator overnight at 37 °C After 24 hours, the supernatant was collected for analysis of IFN-γ cytokine levels by AlphaLisa purchased from Perkin Elmer.

Human venous whole blood = experiment: Human Whole Blood IFN-γ Assay; type: cell-based; settings: anti-CD3 + anti-CD28, 24 h, normalized to 3 μM reference compound, read-out: INFg Whole Blood Normalized-Agonist EC50
Experimental: 9. Human Whole Blood IFN-γ Assay
Human venous whole blood (22.5 μL per well), obtained from healthy donors, was pre-treated with compounds for one hour at 37 °C in a humidified 95% air/5% CO2 incubator. The blood was stimulated with 2.5 μL anti-human CD3 and anti-CD28 mAb at a final concentration of 1 μg/mL each for 24 hours at 37 °C. IFN-γ in the supernatants was measured using AlphLISA kit (Cat #AL217).

naïve human CD8 T cells = experiment: Human CD8 T Cells IFN-γ Assay; type: cell-based; settings: anti-CD3 + anti-CD28, 20 h, normalized to 3 μM reference compound, read-out: HuCD8 INFG Normalized EC50
Experimental: 7. Human CD8 T Cells IFN-γ Assay
Frozen naïve human CD8 T cells were thawed in AIM-V media, incubated for 2 h in 37 °C, and counted. The 384-well tissue culture plate was coated overnight at 4 °C with 20 μL anti-human CD3 at […] in PBS, which was removed off the plate before 40,000 cells per 40 microliters CD8 T cells with 0.1 μg/mL soluble anti-human CD28 were added to each well. The compounds were transferred using an Echo liquid handler to the cell plate immediately after the cells were plated. After 20 h incubation at 37 °C incubator, 3 microliters per well supernatants transferred into a new 384-well white assay plate for cytokine measurement.
Interferon-γ (IFN-γ) was quantitated using the AlphLISA kit (Cat #AL217) as described by the manufacturer manual (Perkin Elmer). The counts from each well were converted to IFN-γ concentration (pg/mL).

COC(=O)C1CN(c2cc(=O)n(C)c3ccc(C#N)nc23)CCN1C(c1ccc(F)cc1)c1ccc(F)cc1 (centres unmarked) [Compound 2, Methyl 1-(bis(4-fluorophenyl)methyl)-4-(6-cyano-1-methyl-2-oxo-1,2-dihydro-1,5-naphthyridin-4-yl)piperazine-2-carboxylate]
pEC50 [1]: 7.19
pEC50 (Human venous whole blood): 6.28
pEC50 (naïve human CD8 T cells): 7.21

C[C@@H]1CN(c2c(C#N)c(=O)n(C)c3ccc(C#N)nc23)CCN1C(c1ccc(F)cc1)c1ccc(F)cc1 [Compound 4, (R)-8-(4-(bis(4-fluorophenyl)methyl)-3-methylpiperazin-1-yl)-5-methyl-6-oxo-5,6-dihydro-1,5-naphthyridine-2,7-dicarbonitrile]
pEC50 [1]: 7.37
pEC50 (Human venous whole blood): 6.40
pEC50 (naïve human CD8 T cells): 7.77

C[C@@H]1CN(c2cc(=O)n(C)c3ccc(C#N)nc23)[C@@H](C)CN1C(c1ccccc1)c1ccc(F)cc1 (stereo partly drawn) [Compound 5, 8-[(2S,5R)-4-[(4-fluorophenyl) (phenyl)methyl]-2,5-dimethylpiperazin-1-yl]-5-methyl-6-oxo-5,6-dihydro-1,5-naphthyridine-2-carbonitrile]
pEC50 (Human venous whole blood): 6.17
pEC50 (naïve human CD8 T cells): 7.52

COc1ccc2c(n1)c(N1C[C@@H](C)N(C(c3ccc(F)cc3)c3ccc(Cl)cc3)C[C@@H]1C)cc(=O)n2C (stereo partly drawn) [Compound 8, 4-[(2S,5R)-4-[(4-chlorophenyl)(4-fluorophenyl)methyl]-2,5-dimethylpiperazin-1-yl]-6-methoxy-1-methyl-1,2-dihydro-1,5-naphthyridin-2-one]
pEC50 (naïve human CD8 T cells): 4.92

C[C@@H]1CN(c2cc(=O)n(C)c3ccc(C#N)nc23)[C@@H](C)CN1Cc1ccc(F)cc1C(F)F [Compound 9, 8-[(2S,5R)-4-{[2-(difluoromethyl)-4-fluorophenyl]methyl}-2,5-dimethylpiperazin-1-yl]-5-methyl-6-oxo-5,6-dihydro-1,5-naphthyridine-2-carbonitrile]
pEC50 (Human venous whole blood): 5.82
pEC50 (naïve human CD8 T cells): 6.77

Cc1ccc(C(c2ccc(F)cc2)N2C[C@H](C)N(c3cc(=O)n(C)c4ccc(C#N)nc34)C[C@H]2C)cc1 (stereo partly drawn) [Compound 10, 8-[(2S,5R)-4-[(4-fluorophenyl)(4-methylphenyl)methyl]-2,5-dimethylpiperazin-1-yl]-5-methyl-6-oxo-5,6-dihydro-1,5-naphthyridine-2-carbonitrile]
pEC50 [1]: 7.49
pEC50 (Human venous whole blood): 6.36
pEC50 (naïve human CD8 T cells): 7.64

CC(c1c(F)cccc1F)N1C[C@H](C)N(c2cc(=O)n(C)c3ccc(C#N)nc23)C[C@H]1C (stereo partly drawn) [Compound 11, 8-[(2S,5R)-4-[1-(2,6-difluorophenyl)ethyl]-2,5-dimethylpiperazin-1-yl]-5-methyl-6-oxo-5,6-dihydro-1,5-naphthyridine-2-carbonitrile]
pEC50 (Human venous whole blood): 6.19
pEC50 (naïve human CD8 T cells): 7.66

CCC(c1ccc(F)cc1F)N1C[C@H](C)N(c2cc(=O)n(C)c3ccc(C#N)nc23)C[C@H]1C (stereo partly drawn) [Compound 12, 8-((2S,5R)-4-(1-(2,4-difluorophenyl)propyl)-2,5-dimethylpiperazin-1-yl)-5-methyl-6-oxo-5,6-dihydro-1,5-naphthyridine-2-carbonitrile]
pEC50 (Human venous whole blood): 6.36
pEC50 (naïve human CD8 T cells): 7.32

Cc1ccc(C(c2ccc(C)cc2)N2C[C@H](C)N(c3cc(=O)n(C)c4ccc(C#N)nc34)C[C@H]2C)cc1 [Compound 16, 8-[(2S,5R)-4-[bis(4-methylphenyl)methyl]-2,5-dimethylpiperazin-1-yl]-5-methyl-6-oxo-5,6-dihydro-1,5-naphthyridine-2-carbonitrile]
pEC50 [1]: 7.14
pEC50 (Human venous whole blood): 6.28
pEC50 (naïve human CD8 T cells): 8.02

CCC(c1ccc(C(F)(F)F)cc1)N1C[C@H](CC)N(c2nc(=O)n(C)c3ccc(C#N)nc23)C[C@H]1CC (stereo partly drawn) [Compound 18, 4-((2S,5R)-2,5-Diethyl-4-(1-(4-(trifluoromethyl)phenyl)propyl)piperazin-1-yl)-1-methyl-2-oxo-1,2-dihydropyrido[3,2-d]pyrimidine-6-carbonitrile]
pEC50 (Human venous whole blood): 5.43

CC[C@@H]1CN(c2nc(=O)n(C)c3ccc(C#N)nc23)[C@@H](C)CN1C(C)c1ccc(C(F)(F)F)cc1 (stereo partly drawn) [Compound 19, 4-((2S,5R)-5-Ethyl-2-methyl-4-(1-(4-(trifluoromethyl)phenyl)ethyl)piperazin-1-yl)-1-methyl-2-oxo-1,2-dihydropyrido[3,2-d]pyrimidine-6-carbonitrile]
pEC50 (Human venous whole blood): 6.28

CC[C@@H]1CN(c2nc(=O)n(C)c3ccc(C#N)nc23)[C@@H](C)CN1C(C)c1ccc(C(F)(F)F)cc1 (stereo partly drawn) [Compound 20, 4-((2S,5R)-5-Ethyl-2-methyl-4-(1-(4-(trifluoromethyl)phenyl)ethyl)piperazin-1-yl)-1-methyl-2-oxo-1,2-dihydropyrido[3,2-d]pyrimidine-6-carbonitrile]
pEC50 (Human venous whole blood): 7.49

CC[C@@H]1CN(c2nc(=O)n(C)c3ccc(C#N)nc23)[C@@H](C)CN1C(c1ccc(F)cc1)c1ccc(C(F)(F)F)cn1 (stereo partly drawn) [Compound 21, 4-((2S,5R)-5-Ethyl-4-((4-fluorophenyl)(5-(trifluoromethyl)pyridin-2-yl)methyl)-2-methylpiperazin-1-yl)-1-methyl-2-oxo-1,2-dihydropyrido[3,2-d]pyrimidine-6-carbonitrile]
pEC50 (Human venous whole blood): 7.37

CC[C@@H]1CN(c2nc(=O)n(C)c3ccc(C#N)nc23)[C@@H](C)CN1C(c1ccc(F)cc1)c1ccc(C(F)(F)F)cn1 (stereo partly drawn) [Compound 22, 4-((2S,5R)-5-Ethyl-4-((4-fluorophenyl)(5-(trifluoromethyl)pyridin-2-yl)methyl)-2-methylpiperazin-1-yl)-1-methyl-2-oxo-1,2-dihydropyrido[3,2-d]pyrimidine-6-carbonitrile]
pEC50 (Human venous whole blood): 7.70

CC[C@@H]1CN(c2nc(=O)n(C)c3ccc(C#N)nc23)[C@@H](C)CN1C(c1ccc(Cl)cc1)c1ccccn1 (some centres unmarked) [Compound 23]
pEC50 (Human venous whole blood): 4.98

CC[C@@H]1CN(c2nc(=O)n(C)c3ccc(C#N)nc23)[C@@H](C)CN1C(c1ccc(Cl)cc1)c1ccccn1 (some centres unmarked) [Compound 24]
pEC50 (Human venous whole blood): 6.70

CC[C@H]1CN(C(c2ccc(F)cc2)c2nc(C3CC3)no2)[C@H](CC)CN1c1nc(=O)n(C)c2ccc(C#N)nc12 (some centres unmarked) [Compound 25]
pEC50 (Human venous whole blood): 7.82

CC[C@H]1CN(C(c2ccc(F)cc2)c2nc(C3CC3)no2)[C@H](CC)CN1c1nc(=O)n(C)c2ccc(C#N)nc12 (some centres unmarked) [Compound 26]
pEC50 (Human venous whole blood): 7.05

C[C@@H]1CN(c2nc(=O)n(C)c3ccc(C#N)nc23)[C@@H](C)CN1C(c1ccc(F)cc1)c1ccc(C(F)(F)F)cn1 (stereo partly drawn) [Compound 28, 4-((2S,5R)-4-((4-fluorophenyl)(5-(trifluoromethyl)pyridin-2-yl)methyl)-2,5-dimethylpiperazin-1-yl)-1-methyl-2-oxo-1,2-dihydropyrido[3,2-d]pyrimidine-6-carbonitrile]
pEC50 (Human venous whole blood): 6.62

CCC[C@@H]1CN(c2nc(=O)n(C)c3ccc(C#N)nc23)[C@@H](C)CN1C(C)c1ccc(C(F)(F)F)cc1 (stereo partly drawn) [Compound 33, 1-Methyl-4-((2S,5R)-2-methyl-5-propyl-4-(1-(4-(trifluoromethyl)phenyl)ethyl)piperazin-1-yl)-2-oxo-1,2-dihydropyrido[3,2-d]pyrimidine-6-carbonitrile]
pEC50 (Human venous whole blood): 4.70
